Measured values from ChEMBL document CHEMBL4765237, “Structural optimization and structure-activity relationship studies of N-phenyl-7,8-dihydro-6H-pyrimido[5,4-b][1,4]oxazin-4-amine derivatives as a new class of inhibitors of RET and its drug resistance mutants” (Eur J Med Chem, 2018).

Columns and labels:
[1] = target: Tyrosine-protein kinase ITK/TSK (Homo sapiens, UniProt Q08881); assay: Inhibition of human ITK (352 to 617 residues) using myelin basic protein as substrate after 40 mins by [gamma-33ATP] radiometric assay
[2] = target: Mitogen-activated protein kinase 11 (Homo sapiens, UniProt Q15759); assay: Inhibition of recombinant human full length SAPK2b using myelin basic protein as substrate incubated for 40 mins in presence of [gamma33P]ATP by scintillation counting based radiometry assay
[3] = Toxicity in NOD-SCID mouse xenografted with […] cells harboring RET C634Y mutant assessed as reduction in body weight at 10 to 30 mg/kg, po administered for 18 days and measured on day 18; assay type: organism-based; details: in vivo, 432 h, dose 10-30 mg/kg, time 18 day
[4] = Growth inhibition of human TT cells incubated for 10 days by MTT assay; assay type: functional; details: 240 h, time 10 day
[5] = target: MAP kinase-interacting serine/threonine-protein kinase 2 (Homo sapiens, UniProt Q9HBH9); assay: Inhibition of recombinant human MNK2 using myelin basic protein as substrate incubated for 40 mins in presence of [gamma-33ATP by scintillation counting based radiometry assay
[6] = target: Mitogen-activated protein kinase kinase kinase kinase 5 (Homo sapiens, UniProt Q9Y4K4); assay: Inhibition of recombinant human MAP4K5 using myelin basic protein as substrate incubated for 40 mins in presence of [gamma-33ATP by scintillation counting based radiometry assay
[7] = target: Ephrin type-A receptor 2 (Homo sapiens, UniProt P29317); assay: Inhibition of recombinant human EphA2 (596 to 900 residues) using poly(Glu, Tyr) 4:1 as substrate incubated for 40 mins in presence of [gamma-33ATP] by scintillation counting based radiometry assay
[8] = Growth inhibition of human HTH-83 cells incubated for 3 days by MTT assay; assay type: functional; details: HTh83, 72 h, time 3 day
[9] = test system: HeLa; assay: Growth inhibition of human HeLa cells incubated for 3 days by MTT assay; assay type: functional; details: 72 h, time 3 day
[10] = test system: BaF3; assay: Growth inhibition of mouse BaF3 cells incubated for 3 days by MTT assay; assay type: functional; details: BaF3, 72 h, time 3 day
[11] = target: Vascular endothelial growth factor receptor 2 (Homo sapiens, UniProt P35968); assay: Inhibition of human KDR (790 to end residues) using myelin basic protein as substrate after 40 mins by [gamma-33ATP] radiometric assay
[12] = Growth inhibition of […] NIH3T3 cells harboring RET C634Y mutant incubated for 3 days by MTT assay; assay type: functional; details: NIH3T3, 72 h; time 3 day
[13] = test system: MDA-MB-231; assay: Growth inhibition of human MDA-MB-231 cells incubated for 3 days by MTT assay; assay type: functional; details: MDA-MB-231, 72 h, time 3 day
[14] = test system: HGC-27; assay: Growth inhibition of human HGC-27 cells incubated for 3 days by MTT assay; assay type: functional; details: HGC-27, 72 h, time 3 day
[15] = test system: BGC-823; assay: Growth inhibition of human BGC-823 cells incubated for 3 days by MTT assay; assay type: functional; details: BGC-823, 72 h, time 3 day
[16] = target: CDK9/cyclin T1 (Homo sapiens, UniProt P50750); assay: Inhibition of recombinant full length human CDK9/cyclinT1 using KTFCGTPEYLAPE as substrate incubated for 40 mins in presence of [gamma-33ATP] by scintillation counting based radiometry assay; assay type: protein-complex assay
[17] = target: Tyrosine-protein kinase Blk (Homo sapiens, UniProt P51451); assay: Inhibition of recombinant full length human BLK using poly(Glu, Tyr) 4:1 as substrate incubated for 40 mins in presence of [gamma-33ATP] by scintillation counting based radiometry assay
[18] = Half life in Sprague-Dawley rat at 10 mg/kg, po measured upto 24 hrs by LC-MS/MS analysis; assay type: ADME, organism-based; details: in vivo
[19] = target: TRAF2 and NCK-interacting protein kinase (Homo sapiens, UniProt Q9UKE5); assay: Inhibition of human TNIK (1 to 367 residues) using RLGRDKYKTLRQIRQ as substrate incubated for 40 mins in presence of [gamma33P]ATP by scintillation counting based radiometry assay
[20] = target: Ephrin type-B receptor 2 (Homo sapiens, UniProt P29323); assay: Inhibition of recombinant human EphB2 (560 to end residues) using poly(Glu, Tyr) 4:1 as substrate incubated for 40 mins in presence of [gamma-33ATP] by scintillation counting based radiometry assay
[21] = target: Vascular endothelial growth factor receptor 1 (Homo sapiens, UniProt P17948)
Vascular endothelial growth factor receptor 1, sequence (P17948 whole entry): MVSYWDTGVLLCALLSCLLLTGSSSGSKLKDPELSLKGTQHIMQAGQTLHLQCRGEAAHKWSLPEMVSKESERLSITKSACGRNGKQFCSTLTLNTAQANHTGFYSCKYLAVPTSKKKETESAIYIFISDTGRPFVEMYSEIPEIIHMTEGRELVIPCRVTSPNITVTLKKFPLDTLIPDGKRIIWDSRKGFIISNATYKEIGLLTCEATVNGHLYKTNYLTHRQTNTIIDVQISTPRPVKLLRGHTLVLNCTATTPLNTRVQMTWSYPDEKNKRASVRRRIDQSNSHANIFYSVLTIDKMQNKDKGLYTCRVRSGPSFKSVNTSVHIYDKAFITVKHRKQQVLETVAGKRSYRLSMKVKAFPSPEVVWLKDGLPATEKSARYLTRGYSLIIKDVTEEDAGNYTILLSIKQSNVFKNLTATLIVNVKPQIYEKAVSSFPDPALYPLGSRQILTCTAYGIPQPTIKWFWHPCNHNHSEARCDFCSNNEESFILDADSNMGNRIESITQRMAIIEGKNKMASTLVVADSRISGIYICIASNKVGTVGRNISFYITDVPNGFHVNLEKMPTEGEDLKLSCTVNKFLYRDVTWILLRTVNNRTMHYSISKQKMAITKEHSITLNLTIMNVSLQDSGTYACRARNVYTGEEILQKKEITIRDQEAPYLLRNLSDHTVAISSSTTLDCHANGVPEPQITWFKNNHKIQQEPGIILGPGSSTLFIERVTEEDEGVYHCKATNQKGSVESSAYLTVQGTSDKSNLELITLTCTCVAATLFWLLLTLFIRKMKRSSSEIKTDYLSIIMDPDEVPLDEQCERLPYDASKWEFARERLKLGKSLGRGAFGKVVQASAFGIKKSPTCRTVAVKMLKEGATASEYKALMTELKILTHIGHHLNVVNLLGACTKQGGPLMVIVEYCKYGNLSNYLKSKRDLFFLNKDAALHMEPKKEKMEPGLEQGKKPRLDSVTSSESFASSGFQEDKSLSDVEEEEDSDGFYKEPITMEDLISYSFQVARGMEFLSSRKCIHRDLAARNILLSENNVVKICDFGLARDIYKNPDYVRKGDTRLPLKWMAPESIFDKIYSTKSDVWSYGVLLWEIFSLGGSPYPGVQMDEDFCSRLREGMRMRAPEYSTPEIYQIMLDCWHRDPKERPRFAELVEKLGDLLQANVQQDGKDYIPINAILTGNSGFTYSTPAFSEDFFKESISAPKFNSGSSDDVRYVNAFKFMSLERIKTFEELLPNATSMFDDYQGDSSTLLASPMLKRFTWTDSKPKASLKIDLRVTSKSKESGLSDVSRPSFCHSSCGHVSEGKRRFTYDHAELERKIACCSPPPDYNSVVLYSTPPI

Tyrosine-protein kinase Blk, sequence (P51451 whole entry): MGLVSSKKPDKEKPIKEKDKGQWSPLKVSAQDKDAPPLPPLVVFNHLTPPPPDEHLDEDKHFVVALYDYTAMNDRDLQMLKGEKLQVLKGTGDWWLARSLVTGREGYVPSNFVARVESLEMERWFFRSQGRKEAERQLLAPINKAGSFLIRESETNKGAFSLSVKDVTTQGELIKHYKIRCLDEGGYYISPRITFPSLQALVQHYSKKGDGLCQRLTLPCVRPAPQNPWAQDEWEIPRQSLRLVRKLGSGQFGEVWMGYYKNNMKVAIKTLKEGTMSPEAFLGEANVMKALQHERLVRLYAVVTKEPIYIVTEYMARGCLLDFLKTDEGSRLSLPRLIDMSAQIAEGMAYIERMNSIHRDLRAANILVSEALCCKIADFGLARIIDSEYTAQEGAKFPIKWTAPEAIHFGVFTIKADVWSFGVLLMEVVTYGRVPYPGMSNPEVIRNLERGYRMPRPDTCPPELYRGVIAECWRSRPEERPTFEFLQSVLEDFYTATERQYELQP
CDK9/cyclin T1, sequence (O60563 whole entry): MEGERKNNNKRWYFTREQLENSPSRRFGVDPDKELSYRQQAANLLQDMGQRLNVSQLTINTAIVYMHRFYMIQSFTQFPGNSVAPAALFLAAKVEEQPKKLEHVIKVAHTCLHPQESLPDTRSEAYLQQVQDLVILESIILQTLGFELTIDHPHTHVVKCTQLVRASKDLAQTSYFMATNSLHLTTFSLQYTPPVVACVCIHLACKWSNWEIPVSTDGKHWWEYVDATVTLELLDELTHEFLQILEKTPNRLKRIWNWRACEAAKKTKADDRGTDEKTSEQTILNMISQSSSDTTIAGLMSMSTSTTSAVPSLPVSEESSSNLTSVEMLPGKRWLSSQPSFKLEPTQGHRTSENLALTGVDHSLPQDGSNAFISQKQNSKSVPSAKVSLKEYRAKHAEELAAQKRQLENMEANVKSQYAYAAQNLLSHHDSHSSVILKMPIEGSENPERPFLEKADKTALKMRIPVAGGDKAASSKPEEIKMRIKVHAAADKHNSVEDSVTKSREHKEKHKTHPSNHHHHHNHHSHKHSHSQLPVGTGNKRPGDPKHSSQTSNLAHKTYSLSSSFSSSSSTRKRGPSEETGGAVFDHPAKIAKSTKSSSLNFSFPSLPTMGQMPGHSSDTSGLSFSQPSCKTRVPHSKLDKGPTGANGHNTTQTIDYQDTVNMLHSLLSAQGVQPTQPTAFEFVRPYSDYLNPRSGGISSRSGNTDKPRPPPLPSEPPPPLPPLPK
CDK9/cyclin T1, sequence (P50750 whole entry): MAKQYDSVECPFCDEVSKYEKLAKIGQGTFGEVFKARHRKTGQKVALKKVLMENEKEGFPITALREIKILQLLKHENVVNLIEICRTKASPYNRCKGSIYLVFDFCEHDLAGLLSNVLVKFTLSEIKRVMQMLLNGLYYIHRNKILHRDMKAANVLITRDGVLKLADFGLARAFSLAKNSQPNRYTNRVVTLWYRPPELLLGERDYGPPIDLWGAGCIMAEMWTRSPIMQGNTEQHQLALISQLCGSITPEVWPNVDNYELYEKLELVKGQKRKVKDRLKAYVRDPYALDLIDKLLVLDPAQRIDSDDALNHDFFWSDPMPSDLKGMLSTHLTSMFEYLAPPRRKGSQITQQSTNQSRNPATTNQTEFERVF
Vascular endothelial growth factor receptor 2, sequence (P35968 whole entry): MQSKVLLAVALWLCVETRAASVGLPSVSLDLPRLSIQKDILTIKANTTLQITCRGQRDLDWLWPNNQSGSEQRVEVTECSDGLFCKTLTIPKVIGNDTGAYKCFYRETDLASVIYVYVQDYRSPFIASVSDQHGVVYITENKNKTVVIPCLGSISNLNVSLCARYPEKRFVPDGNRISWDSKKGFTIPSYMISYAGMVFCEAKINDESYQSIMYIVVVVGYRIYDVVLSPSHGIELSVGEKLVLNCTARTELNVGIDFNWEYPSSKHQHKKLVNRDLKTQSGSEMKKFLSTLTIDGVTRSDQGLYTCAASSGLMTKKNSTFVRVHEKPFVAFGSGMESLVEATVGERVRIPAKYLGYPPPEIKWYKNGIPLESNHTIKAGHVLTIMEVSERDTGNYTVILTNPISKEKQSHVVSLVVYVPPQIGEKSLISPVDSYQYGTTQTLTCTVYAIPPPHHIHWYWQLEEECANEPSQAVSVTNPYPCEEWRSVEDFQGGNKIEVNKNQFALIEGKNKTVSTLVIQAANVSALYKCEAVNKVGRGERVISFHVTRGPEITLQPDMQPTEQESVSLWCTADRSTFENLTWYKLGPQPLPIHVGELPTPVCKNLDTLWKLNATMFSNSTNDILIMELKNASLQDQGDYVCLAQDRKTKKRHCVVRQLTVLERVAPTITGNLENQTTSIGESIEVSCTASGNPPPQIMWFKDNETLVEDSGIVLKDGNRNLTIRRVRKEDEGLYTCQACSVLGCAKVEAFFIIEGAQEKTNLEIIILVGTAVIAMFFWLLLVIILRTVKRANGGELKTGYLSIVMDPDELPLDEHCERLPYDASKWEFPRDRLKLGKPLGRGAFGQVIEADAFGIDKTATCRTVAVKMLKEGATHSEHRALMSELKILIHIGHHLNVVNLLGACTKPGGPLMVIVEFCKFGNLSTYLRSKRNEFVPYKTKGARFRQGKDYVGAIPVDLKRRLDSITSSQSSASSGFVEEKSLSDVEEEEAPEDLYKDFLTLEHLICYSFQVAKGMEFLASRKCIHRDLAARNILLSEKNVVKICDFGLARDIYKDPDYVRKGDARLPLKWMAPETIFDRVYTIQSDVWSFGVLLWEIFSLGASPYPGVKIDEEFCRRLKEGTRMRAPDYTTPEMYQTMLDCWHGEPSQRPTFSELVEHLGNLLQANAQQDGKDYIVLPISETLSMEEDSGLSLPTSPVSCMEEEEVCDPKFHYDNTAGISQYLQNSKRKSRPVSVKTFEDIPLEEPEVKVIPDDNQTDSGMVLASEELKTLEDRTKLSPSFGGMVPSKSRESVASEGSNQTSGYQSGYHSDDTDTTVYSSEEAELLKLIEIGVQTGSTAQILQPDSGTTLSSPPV
Mitogen-activated protein kinase 11, sequence (Q15759 whole entry): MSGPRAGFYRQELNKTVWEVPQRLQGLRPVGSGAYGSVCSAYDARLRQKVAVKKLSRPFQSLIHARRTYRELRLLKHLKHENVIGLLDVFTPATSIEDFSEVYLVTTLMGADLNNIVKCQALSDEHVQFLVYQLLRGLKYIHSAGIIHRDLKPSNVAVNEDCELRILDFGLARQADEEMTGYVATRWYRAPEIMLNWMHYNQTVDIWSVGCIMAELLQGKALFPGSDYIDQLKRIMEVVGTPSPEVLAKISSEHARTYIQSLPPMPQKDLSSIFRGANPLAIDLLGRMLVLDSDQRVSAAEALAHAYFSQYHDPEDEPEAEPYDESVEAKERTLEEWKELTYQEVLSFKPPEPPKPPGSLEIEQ

CC(C)(C)c1cc(NC(=O)Nc2ccc(Nc3ncnc4c3OCCCN4)cc2)no1
IC50 [1]: 338 nM | IC50 [2]: 50 nM | Activity [3]: Non-Toxic | GI50 [4]: 65 nM | IC50 [5]: 136 nM | IC50 [6]: 711 nM | IC50 [7]: 104 nM | GI50 [8]: > 10000 nM | GI50 [9]: > 10000 nM | GI50 [10]: > 10000 nM | IC50 [11]: 892 nM | GI50 [12]: 80 nM | GI50 [13]: > 10000 nM | GI50 [14]: 5760 nM | GI50 [15]: 8470 nM | IC50 [16]: 833 nM | IC50 [17]: 1910 nM | half-life [18]: 1.54 h | IC50 [19]: 221 nM | IC50 [20]: 1090 nM | IC50 [21]: 8 nM
